Reference: patent publication US20220064672A1, “ENGINEERED ONCOLYTIC VIRUSES EXPRESSING PD-L1 INHIBITORS AND USES THEREOF” (priority 2020, published 2022)
Where two headings read alike, the source gives them in different places.

T1: H-2D^b (Mus musculus, UniProt P01899)
T1 sequence (P01899 25-362): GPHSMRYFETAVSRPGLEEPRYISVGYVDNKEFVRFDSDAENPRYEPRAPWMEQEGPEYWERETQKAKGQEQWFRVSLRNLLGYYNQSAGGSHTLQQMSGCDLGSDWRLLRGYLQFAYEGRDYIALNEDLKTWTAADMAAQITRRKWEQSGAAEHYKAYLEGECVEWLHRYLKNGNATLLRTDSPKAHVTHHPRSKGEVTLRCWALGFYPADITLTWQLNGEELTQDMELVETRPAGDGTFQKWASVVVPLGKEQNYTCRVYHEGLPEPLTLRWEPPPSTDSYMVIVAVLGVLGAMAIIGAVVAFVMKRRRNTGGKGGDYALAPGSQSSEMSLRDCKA
T1 sequence (P01887 21-119 partner): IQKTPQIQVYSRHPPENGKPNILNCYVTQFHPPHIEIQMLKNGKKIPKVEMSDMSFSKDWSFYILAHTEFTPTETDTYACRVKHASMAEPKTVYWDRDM

T2: H-2K^b (Mus musculus, UniProt P01901)
T2 sequence (P01901 22-369): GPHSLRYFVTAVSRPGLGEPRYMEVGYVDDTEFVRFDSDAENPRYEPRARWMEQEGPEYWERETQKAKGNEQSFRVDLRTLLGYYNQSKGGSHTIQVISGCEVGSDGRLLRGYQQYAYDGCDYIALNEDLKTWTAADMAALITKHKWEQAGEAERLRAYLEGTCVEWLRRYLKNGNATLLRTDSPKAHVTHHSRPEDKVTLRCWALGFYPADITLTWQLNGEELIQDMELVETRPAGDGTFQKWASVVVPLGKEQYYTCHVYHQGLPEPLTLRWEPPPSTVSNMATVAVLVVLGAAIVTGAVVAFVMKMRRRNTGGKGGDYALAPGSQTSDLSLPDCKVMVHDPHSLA
T2 sequence (P01887 21-119 partner): T1 sequence (P01887 21-119 partner)

B1: iPDL1: murine soluble PD-1 extracellular domain fused with IgG1 Fc as a PD-L1 inhibitor, SEQ ID NO:2 (protein)
chain: MWVRQVPWSFTWAVLQLSWQSGWLLEVPNGPWRSLTFYPAWLTVSEGANATFTCSLSNWSEDLMLNWNRLSPSNQTEKQAAFCNGLSQPVQDARFQIIQLPNRHDFHMNILDTRRNDSGIYLCGAISLHPKAKIEESPGAELVVTERILETSTRYPSPSPKPEGRFQPRGPTIKPCPPCKCPAPNLLGGPSVFIFPPKIKDVLMISLSPIVTCVVVDVSEDDPDVQISWFVNNVEVHTAQTQTHREDYNSTLRVVSALPIQHQDWMSGKEFKCKVNNKDLPAPIERTISKPKGSVRAPQVYVLPPPEEEMTKKQVTLTCMVTDFMPEDIYVEWTNNGKTELNYKNTEPVLDSDGSYFMYSKLRVEKKNWVERNSYSCSVVHEGLHNHHTTKSFSRTPGK
modifications: Mouse
B2: iPDL1 (murine soluble PD-1 extracellular domain fused with IgG1 Fc) (Fc fusion)
chain: LEVPNGPWRSLTFYPAWLTVSEGANATFTCSLSNWSEDLMLNWNRLSPSNQTEKQAAFCNGLSQPVQDARFQIIQLPNRHDFHMNILDTRRNDSGIYLCGAISLHPKAKIEESPGAELVVTERILETSTRYPSPSPKPEGRFQPRGPTIKPCPPCKCPAPNLLGGPSVFIFPPKIKDVLMISLSPIVTCVVVDVSEDDPDVQISWFVNNVEVHTAQTQTHREDYNSTLRVVSALPIQHQDWMSGKEFKCKVNNKDLPAPIERTISKPKGSVRAPQVYVLPPPEEEMTKKQVTLTCMVTDFMPEDIYVEWTNNGKTELNYKNTEPVLDSDGSYFMYSKLRVEKKNWVERNSYSCSVVHEGLHNHHTTKSFSRTPGK
notes: detection used anti-IgG2a-Fc / anti-mouse IgG; also called soluble PD-1-Fc; soluble PD-1-IgG Fc

Legend:
H-2D^b = biological target: T1, H-2D^b; conditions: MHC allele H-2D^b, cited from earlier work
H-2K^b = biological target: T2, H-2K^b; conditions: MHC allele H-2K^b, cited from earlier work
[1] = biological target: PD-L1 protein (Abcam, ab130039) (UniProt Q9EP73); assay: competitive ELISA: PD-L1-coated plate, displacement of mouse PD-1-biotin
PD-1/PD-L1 interaction = biological target: T3, PD-1/PD-L1 interaction (Homo sapiens, UniProt Q9NZQ7); type: binding; conditions: purified ihPDL1 at the tested concentrations
T3 construct: purchased BPS Bioscience

PD-L1 [2] = biological target: PD-L1 (Homo sapiens, UniProt Q9NZQ7); assay: Surface plasmon resonance (SPR)-binding assay; conditions: immobilized PD-L1-His tag protein
Protocol: Surface plasmon resonance (SPR)-binding assays: The assays were carried out at 25° C. using a Biacore T100 (USC NanoBiophysics Center). CMS sensor chips were activated by a 7 min injection of a 1:1 mixture of N-hydroxysuccinimide and 1-ethyl-3-(3-dimethylaminopropyl) carbodiimide hydrochloride at a flow rate of 10 μL/min. The PD-L1-His tag protein was prepared at a concentration of 10 μg/mL in 10 mM acetate buffer, pH 4.0, and immobilized to the sensor chips by amine linkage, with the typical immobilization levels being 100 response units. For blocking sensor chips, 70 μL of 1M ethanolamine-HCl buffer, pH 8.5, was injected and the chips were further washed with 10 μL of 10 mM glycine-HCl buffer, pH 1.5. For analyzing the binding and equilibrium affinity of ihPDL1 or a-PD-L1 antibody (biolegend, cat 329702), 5 serial dilutions of ihPDL1 starting from 200 μg/mL, or 6 serial dilutions of α-PD-L1 antibody starting from 100 μg/mL were injected at a flow rate of 30 μL/min over the sensor chips coupled with PD-L1 protein. The data sets were analyzed using a model for 1:1 binding.

[3] = system: T-cells from healthy PBMCs with allogeneic mature DCs; type: cell-based, human; conditions: purified ihPDL1 at 0.01 μg/mL, 0.1 μg/mL, or 1 μg/mL
[4] = system: K562/PD-L1, U251/PD-L1, H226/PD-L1 target cells; assay: ADCC assay (Jurkat effector cells); type: cell-based, human; conditions: any of the PD-L1-expressed target cell lines
Protocol: ADCC assay: Purified ihPDL1 was analyzed with ADCC kit according to the manufacturer's instruction (Promega, Madison, Wis.).

PD-L1^+ tumor cells = biological target: T4, PD-L1^+ tumor cells (Homo sapiens, UniProt Q9NZQ7); type: cell-based; conditions: PD-L1-transduced 293T or K562, IFN-γ pre-stimulated H226 or U251
T4 construct: endogenous in cells; host or cells: IFN-γ-stimulated U251 or H226

PD-L1 [5] = biological target: T5, PD-L1 (Mus musculus, UniProt Q9EP73); type: in vivo; conditions: MC38, untreated distant tumors
T5 construct: from tissue; host or cells: single-cell suspensions of treated and distant MC38 tumours from C57BL/6 mice

[6] = biological target: T6, PD-L1 on MC38 tumor cells (Mus musculus, UniProt Q9EP73); type: cell-based
T6 construct: endogenous in cells; host or cells: MC38 (wild type, IFN-γ stimulated, or PD-L1 shRNA knock-down as negative control)

PD-1+ CD8+ T cells = conditions: purified iPDL1 in comparison to control IgG
Excerpt: (FIG. 7I) PD-1+ CD8+ T cells isolated from VV-treated MC38 tumors were cocultured with MC38 cells in the presence of purified iPDL1 or IgG. IFN-γ+ frequencies of PD-1+ T cells were shown from one of two independent experiments.

[7] = biological target: PD-L1 protein (Abcam, ab130039) (UniProt Q9EP73 19-238); assay: competitive ELISA: PD-L1-coated plate, displacement of mouse PD-1-biotin
[8] = mutant peptide, read-out: IC50 (mutant)
[9] = wild type peptide, read-out: IC50 (Wild Type)

T6 sequence (Q9EP73 19-290): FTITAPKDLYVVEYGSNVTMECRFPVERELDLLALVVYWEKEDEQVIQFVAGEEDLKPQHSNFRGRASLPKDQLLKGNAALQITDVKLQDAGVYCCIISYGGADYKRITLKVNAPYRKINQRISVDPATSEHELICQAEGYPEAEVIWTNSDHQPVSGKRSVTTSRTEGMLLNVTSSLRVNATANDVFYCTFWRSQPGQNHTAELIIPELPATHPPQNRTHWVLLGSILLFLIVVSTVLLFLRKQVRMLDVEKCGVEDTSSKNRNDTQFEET
Chain of PD-L1 protein (Abcam, ab130039) (UniProt Q9EP73) (Q9EP73 19-238 limits assumed): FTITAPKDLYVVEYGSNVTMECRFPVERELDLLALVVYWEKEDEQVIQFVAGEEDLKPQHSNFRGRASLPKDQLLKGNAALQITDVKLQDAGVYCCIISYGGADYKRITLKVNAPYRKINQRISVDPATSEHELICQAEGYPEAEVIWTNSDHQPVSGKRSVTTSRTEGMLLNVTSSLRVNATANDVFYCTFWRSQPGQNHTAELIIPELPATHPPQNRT
Chain of PD-L1 protein (Abcam, ab130039) (UniProt Q9EP73 19-238) (Q9EP73 19-238 limits assumed): as above
T4 sequence (Q9NZQ7 19-290): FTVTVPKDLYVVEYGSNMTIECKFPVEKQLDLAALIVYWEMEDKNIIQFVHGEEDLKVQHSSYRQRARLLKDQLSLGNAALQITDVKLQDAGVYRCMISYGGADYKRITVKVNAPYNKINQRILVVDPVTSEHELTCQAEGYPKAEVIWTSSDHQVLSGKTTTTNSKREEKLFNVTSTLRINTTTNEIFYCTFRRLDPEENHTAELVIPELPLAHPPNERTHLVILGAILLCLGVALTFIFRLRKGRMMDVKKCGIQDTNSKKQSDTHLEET
Chain of PD-L1 (Homo sapiens, UniProt Q9NZQ7) (Q9NZQ7 19-290): as above
T3 sequence (Q9NZQ7 19-238 limits assumed): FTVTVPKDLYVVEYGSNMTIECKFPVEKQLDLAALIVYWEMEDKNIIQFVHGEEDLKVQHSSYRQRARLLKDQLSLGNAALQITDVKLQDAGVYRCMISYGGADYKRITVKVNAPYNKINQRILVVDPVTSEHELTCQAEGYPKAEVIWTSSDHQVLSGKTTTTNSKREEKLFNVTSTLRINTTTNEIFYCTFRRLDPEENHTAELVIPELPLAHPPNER
T5 sequence (Q9EP73 19-290): as the sequence (Q9EP73 19-290) above

Row | Molecule | IC50 (H-2D^b; [8]) [nM] | IC50 (H-2D^b; [9]) [nM] | other results
1 | AQL(P/A)NDVVL [Pep2] | 9 | 100 | –
2 | VSPVNDVDV [Pep9, VSPVND(V/L)DV] | 44 | 18 | –
3 | MGGMNRRPI [Pep10, MG(G/V)MNRRPI] | 77 | 841 | –
4 | MAPIDHTAM [Pep3, MAPIDHT(A/T)M] | 30 | 102 | –
5 | SIIVFNLV [Pep5, SIIVFNL(V/L)] | – | – | IC50 (H-2K^b; [8]): 8 nM; IC50 (H-2K^b; [9]): 34 nM
6 | SSP(D/Y)SLHYL [Pep6] | 211 | 685 | –
7 | AALLNSAGL [Pepl, AALLNSA(G/V)L] | 3 | 52 | –
8 | ASMTN(R/M)ELM [Pep4] | 2 | 3 | –
9 | anti-PD-L1 antibody control (Biolegend, 124301) | – | – | IC50 [1]: 4.53 nM
10 | FMACNLLLV [Pep11, FM(A/S)CNLLLV] | 79 | 24 | –
11 | (S/I)MTQHLEPI [Pep7] | 78 | 29 | –
12 | SAIRSYQDV [Pep8, SAIRSYQ(D/Y)V] | 35 | 755 | –
13 | ihPDL1: soluble human PD-1 (extracellular) - IgG1 Fc fusion protein, human PD-L1 inhibitor, SEQ ID NO:52 | – | – | blocking the biotin-PD1 binding to PD-L1-coated wells (PD-1/PD-L1 interaction): equivalent activity to the commercial anti-PD-L1; binding to PD-L1 (SPR) (PD-L1 [2]): specifically bind to PD-L1; T cell activation (IFN-γ level) in MLR [3]: equivalent activity to the commercial anti-PD-L1; concentration that significantly enhanced luc production in the Jurkat effector cells [4]: ≤ 10 ng/mL; binding of purified ihPDL1 to PD-L1^+ tumor cells (PD-L1^+ tumor cells): bound to PD-L1^+ tumor cells
14 | B1 | – | – | binding of secreted iPDL1 to PD-L1 on CD45− cells in distant tumors (PD-L1 [5]): also bound to PD-L1 on CD45− cells in untreated, distant tumors; binding of purified protein to PD-L1+ tumor cells ([6]; 50 μg/mL, MC38 vs PD-L1-knocked down MC38, anti-IgG Fc staining): able to bind to PD-L1+ tumor cells, but not to PD-L1-knocked down tumor cells; binding of secreted iPDL1 to PD-L1 on tumor cells in cell culture ([6]; MC38 infected with VV-iPDL1/GM at MOI=0.5, anti-IgG Fc staining): bound to PD-L1 on the virus-infected (RFP positive) tumor cells, as well as uninfected (RFP negative) tumor cells; IFN-γ+ frequency of PD-1+ CD8+ T cells (PD-1+ CD8+ T cells): higher IFN-γ+ frequency of PD-1+ CD8+ T cells
15 | B2 | – | – | IC50 [7]: 5.63 nM
